Measurements published in patent US20100173845A1, “USE OF FERTIRELIN AND DELTA-ENDORPHIN AS THERAPEUTIC AGENTS” (priority 2007, published 2010).
Where a SMILES comes first, the peptide text is derived from it. Where no end group is shown, it is not given here. [ ]: non-standard residue; d: D form. pGlu = O=C1CC[C@@H](C(=O)O)N1

Legend:
[1] = test system: HCMV strain AD169; experiment: HCMV plaque formation assay in MRC-5 cells; settings: for inhibition of HCMV plaque formation as compared to the virus control experiment: 10 micrograms per ml, 7-10 days, MRC-5 cells
[2] = test system: murine spleen cells; experiment: Th1/Th2 cytokine profiling assay (Ovalbumin-restimulated spleen cells, CBA kit); assay type: cell-based, Balb/c mice; settings: 10 micrograms per ml, 72 hours; for production of IL-5, decreased by: numbers are decreases; for production of IL-5, decreased by / production of IFN-y, induced/increased by / production of IL-2, induced/increased by / production of TNF-alpha, induced by (increase): words state no change; for production of IFN-y, induced/increased by / production of IL-2, induced/increased by / production of TNF-alpha, induced by (increase): numbers are increases
From the text: The Balb/c mice (originated in 1923, it is a popular strain and is used in many different research disciplines. Also classified as an inbred from the production of 20 or more successive brother-sister matings, the Balb/c mouse is albino and small in size) were immunized on Days 1, 15, and 29 with Ovalbumin (Ovalbumin is the main protein found in egg white, commonly used to stimulate an immunological reaction in test animals) in PBS (5 micrograms/injection). On day 50, spleens of the mice were harvested (3 weeks after last boost with Ovalbumin). Cells were cultured (2×10^5/well in triplicate) and incubated with culture medium or test peptides−10 micrograms per ml−for 30 min. Thereafter, additional Ovalbumin was added to the cells at 10 micrograms/ml for in vitro restimulation of the cells. 72 hours later, cell supernatants were harvested and assayed using the Becton Dickinson Mouse Th1/Th2 Cytokine CBA Kit. This kit can be used to measure Interleukin-2 (IL-2), Interleukin-4 (IL-4), Interleukin-5 (IL-5), Interferon-γ (IFN-γ), and Tumor Necrosis Factor-α (TNF-α) protein levels in a single sample.

[3] = test system: HUVEC; experiment: Endothelial tube formation assay; assay type: cell-based, human; settings: 10 micrograms per ml; 20 hours
From the text: […] control wes vehicle only. […] Raw data were expressed as average tubule lenghs in pixels±standard deviation.

[4] = test system: hepatitis B virus (HBV) ayw strain; experiment: HBV assay, secreted HBV DNA by TaqMan PCR in HepG2-2.2.15 cells; assay type: cell-based; settings: 10 micrograms per ml; six days; HBV DNA in supernatant
[5] = test system: Primary Human endothelial cells (HUVEC); experiment: Endothelial cell migration assay; assay type: cell-based; settings: 10 micrograms per ml; 22 hours
Method: Thereafter, designated concentration of testing peptides−10 micrograms per ml−was added in duplicate wells.

YGGFMTSEKSQTPLVTLFKNAIIKNAY [Peptide 2]
inhibition of HCMV plaque formation as compared to the virus control experiment [1]: 0.7% | production of IL-4, decreased by ([2]; decrease): 31.5% | production of IL-5, decreased by [2]: 48.1% | production of IFN-y, induced/increased by [2]: did not significantly change | production of IL-2, induced/increased by [2]: did not significantly change | production of TNF-alpha, induced by (increase) [2]: did not significantly change | inhibition of the tube formation of human endothelial cells [3]: 11% | inhibition of HBV replication as compared to the virus control infection [4]: 0% | inhibition of the migration of human endothelial cells [5]: no effect

CCNC(=O)[C@@H]1CCCN1C(=O)[C@H](CCCNC(=N)N)NC(=O)[C@H](CC(C)C)NC(=O)CNC(=O)[C@H](Cc1ccc(O)cc1)NC(=O)[C@H](CO)NC(=O)[C@H](Cc1c[nH]c2ccccc12)NC(=O)[C@H](Cc1c[nH]cn1)NC(=O)[C@@H]1CCC(=O)N1 [Peptide 1] ([pGlu]HWSYGLRP-NHEt)
inhibition of HCMV plaque formation as compared to the virus control experiment [1]: 2.1% | production of IL-4, induced/increased by ([2]; increase): 139.7% | production of IL-5, decreased by [2]: did not significantly change | production of IFN-y, induced/increased by [2]: 114.7% | production of IL-2, induced/increased by [2]: 168.2% | production of TNF-alpha, induced by (increase) [2]: 27.5% | inhibition of the tube formation of human endothelial cells [3]: 11% | inhibition of HBV replication as compared to the virus control infection [4]: 47.1% | inhibition of the migration of human endothelial cells [5]: 26%

Nc1nc(O)c2ncn(COC(CO)CO)c2n1 [Ganciclovir, reference compound]
antiviral activity of positive control compound ([1]; HCMV in MRC-5 cells): expected levels of antiviral activity
